In patent US5358945A, “Pyrimidine compound and pharmaceutically acceptable salts thereof” (Mitsui Petrochemical Industries, Ltd., priority 1990, dated 1994):

Legend:
Mouse neuro 2a cells = assay: Neurite outgrowth of mouse neuroblastoma neuro 2a cells (Table 7); format: cell-based; details: mean ± S.D.
Experimental: The biological activities in vitro of the compounds of formula (I) on cells of the nervous system were tested. The cells tested were mouse neuroblastoma cell line neuro-2a (Dainippon Pharmaceutical Co., Ltd.) which have been established as the cells of the nervous system. The above nerve cells were grown in an incubator at 37° C. in the presence of 5% carbon dioxide gas exponentially, and the cultured for a certain period of time together with the compounds of formula (I).
The effects of the compounds of this invention on neuroblastoma cells were examined by the following method.
Mouse neuro 2a cells in the logarithmic growth period in the Dulbecco's modified Eagle's medium [DMEM, containing 100 units/ml of penicillin G sodium and 100 micrograms/ml of streptomycin sulfate] containing 10% of FCS were seeded in a 48-well plate so that the number of cells was 1,000 cells/well, and cultured for one day in 0.25 ml of the culture fluid in each well in an incubator containing 5% of carbon dioxide gas in air at 37° C. The medium was replaced by a medium containing each antibiotics and FCS and the cells were further cultured for 24 hours. Then, a 4% aqueous glutaraldehyde solution in the same amount as a medium (0.25 ml) was added, and the culture was left to stand at room temperature for 2 hours to fix the cells. After washing with water, a 0.05% aqueous solution of methylene blue was added to stain the cells. Under a microscope, the number of cells containing outgrown neurites (cells having at least one neurite with a length of at least two times as large as the long diameter of the cell) was counted visually, and the proportion of these cells in the entire cells was calculated. The well was observed over 5 or more visual fields (at least 2% of the entire surface area of the well) continuous to the left and right from a mark put at the center of the well, and more than 200 cells was counted. One drug compound was used in 6 different concentrations at most, and three runs were conducted for each concentration.

[1] = tested on: Mouse neuroblastoma cells NS-20Y; assay: Neurite appearance in mouse neuroblastoma NS-20Y cells (Table 8); format: cell-based;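 note: cells grown in polyornithine-coated dishes, with timing counted from the start of culture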
mouse = assay: Acute toxicity in mouse (Table 10); format: in vivo
Experimental: The acute toxicity of the compounds of the invention was examined by the following method.
Male ddy-strain 5-week old mice, 4-6 per group, were used as experimental animals. Each of the compounds was dissolved or suspended in saline and administered perorally (p.o.) or intraperitoneally (i.p.), and the toxicity of the compound was assessed 24 hours after the administration.

[2] = i.p., 24 hours after administration

SMILES | Ratio of the number of cells having neurites with a length of at least two times as large as the diameter of cells to the total number of cells (Mouse neuro 2a cells; 0.01 mM) [%] | Ratio of the number of cells having neurites with a length of at least two times as large as the diameter of cells to the total number of cells (Mouse neuro 2a cells; 0.1 mM) [%] | The number of cells in which neurites appeared/Total number of cells ([1]; 24 hour, 0.2 mM) | The number of cells in which neurites appeared/Total number of cells ([1]; 48 hour, 0.2 mM) | Estimated LD50 (mouse; [2]) [mg/kg] | Ratio of the number of cells having neurites with a length of at least two times as large as the diameter of cells to the total number of cells (Mouse neuro 2a cells; 0.3 mM) [%] | Ratio of the number of cells having neurites with a length of at least two times as large as the diameter of cells to the total number of cells (Mouse neuro 2a cells; 1 mM) [%] | The number of cells in which neurites appeared/Total number of cells ([1]; 24 hour, 0.5 mM) | The number of cells in which neurites appeared/Total number of cells ([1]; 48 hour, 0.5 mM) | The number of cells in which neurites appeared/Total number of cells ([1]; 24 hour, 0.1 mM) | Ratio of the number of cells having neurites with a length of at least two times as large as the diameter of cells to the total number of cells (Mouse neuro 2a cells; 0.03 mM) [%] | The number of cells in which neurites appeared/Total number of cells ([1]; 48 hour, 0.1 mM) | Estimated LD50 (mouse; in vivo, ip) [mg/kg]
O=C1CCCN1c1ccnc(N2CCC(Cc3ccccc3)CC2)n1 [Compound 368] | 3.4 ± 0.3 | 14.4 ± 1.7 | 6/50 | 2/50 | > 500 | – | – | – | – | – | – | – | –
O=C1CCCN1c1ccnc(N2CCNCC2)n1 [Compound 384] | 4.1 ± 1.5 | 5.1 ± 2.1 | 10/50 | 10/50 | > 500 | 8.3 ± 2.7 | 11.5 ± 1.3 | 14/50 | 17/50 | – | – | – | –
O=C1CCCN1c1ccnc(N2CCCC2)n1 [Compound 320] | 4.2 ± 1.9 | 4.2 ± 0.3 | – | – | > 500 | 11.0 ± 0.8 | 10.7 ± 4.7 | 6/50 | 3/50 | 5/50 | – | – | –
CN(C(=O)c1ccccc1)c1ccnc(N2CCc3ccccc32)n1 [Compound 104] | – | 5.2 ± 2.9 | 3/50 | 4/50 | > 1000 | – | – | 4/50 | 3/50 | – | 3.4 ± 1.0 | – | –
CC1CCN(c2nccc(N3CCCC3=O)n2)CC1 [Compound 304] | – | 6.8 ± 1.0 | 12/50 | 14/50 | – | 17.7 ± 2.9 | 16.3 ± 4.5 | 16/50 | 17/50 | 8/50 | 3.7 ± 1.2 | 7/50 | 250 to 500
O=C1CCCN1c1ccnc(N2CCN(c3ccccc3)CC2)n1 [Compound 416] | 5.0 ± 1.9 | 4.4 ± 0.4 | 6/50 | 7/50 | > 500 | 5.1 ± 1.2 | – | 9/50 | 9/50 | – | – | – | –
CC(=O)c1ccc(C(=O)N(C)c2ccnc(N3CCCCC3)n2)cc1 [Compound 208] | – | – | 2/50 | 6/50 | – | 7.9 ± 0.6 | 12.7 ± 3.0 | 3/50 | 5/50 | – | – | – | > 1000
O=C1CCCN1c1ccnc(N2CCCc3ccccc32)n1 [Compound 360] | – | – | – | – | > 500 | 6.7 ± 0.8 | – | 6/50 | – | 5/50 | 4.8 ± 1.2 | 3/50 | –
